# Reference: ChEMBL document CHEMBL4425136, “4-Oxo-1,4-dihydroquinoline-3-carboxamide Derivatives as New Axl Kinase Inhibitors” (J Med Chem, 2016)
# Experiments:
# [1] = target: T1, Tyrosine-protein kinase receptor UFO (Homo sapiens, UniProt P30530); assay: Inhibition of human recombinant AXL incubated for 1 to 1.5 hrs by FRET based Z'-Lyte kinase assay
# T1 sequence (P30530 whole entry): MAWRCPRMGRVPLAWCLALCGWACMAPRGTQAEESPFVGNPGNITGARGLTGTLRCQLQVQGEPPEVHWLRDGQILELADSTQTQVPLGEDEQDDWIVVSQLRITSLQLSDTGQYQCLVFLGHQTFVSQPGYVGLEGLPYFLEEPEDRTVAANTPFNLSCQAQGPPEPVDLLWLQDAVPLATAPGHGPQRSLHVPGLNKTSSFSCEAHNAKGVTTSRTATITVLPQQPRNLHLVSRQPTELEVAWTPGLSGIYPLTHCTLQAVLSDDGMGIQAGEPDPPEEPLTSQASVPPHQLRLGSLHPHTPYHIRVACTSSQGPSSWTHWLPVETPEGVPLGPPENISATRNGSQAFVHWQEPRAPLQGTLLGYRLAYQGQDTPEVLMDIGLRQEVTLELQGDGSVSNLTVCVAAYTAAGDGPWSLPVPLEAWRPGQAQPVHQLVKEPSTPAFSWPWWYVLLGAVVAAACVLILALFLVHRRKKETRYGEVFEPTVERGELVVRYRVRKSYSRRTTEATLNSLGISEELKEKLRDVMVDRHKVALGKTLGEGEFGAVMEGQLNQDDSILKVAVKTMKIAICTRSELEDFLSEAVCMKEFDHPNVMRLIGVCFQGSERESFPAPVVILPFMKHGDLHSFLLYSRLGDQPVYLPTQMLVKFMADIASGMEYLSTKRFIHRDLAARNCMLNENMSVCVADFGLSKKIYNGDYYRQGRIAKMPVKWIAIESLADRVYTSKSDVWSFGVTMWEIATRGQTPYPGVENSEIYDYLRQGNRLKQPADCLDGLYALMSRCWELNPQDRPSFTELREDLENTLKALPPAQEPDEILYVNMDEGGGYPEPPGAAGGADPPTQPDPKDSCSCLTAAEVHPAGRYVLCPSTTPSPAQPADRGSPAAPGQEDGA
# [2] = system: MDA-MB-231; assay: Effect on total AXL protein level in human MDA-MB-231 cells at 0.03 to 3 uM after 6 hrs by Western blot method; type: ADME, cell-based; conditions: mda-mb-231, 6 h
# [3] = system: 4T1; assay: Antiproliferative activity against mouse 4T1 cells over-expressing Axl cells after 24 to 72 hrs by MTT assay; type: functional, cell-based
# [4] = system: 4T1; assay: Antiproliferative activity against mouse 4T1 cells over-expressing Axl cells after 24 to 72 hrs by CCK8 assay; type: functional, cell-based
# [5] = system: MDA-MB-231; assay: Antiproliferative activity against human MDA-MB-231 cells after 24 to 72 hrs by CCK8 assay; type: functional, cell-based
# [6] = Oral bioavailability in Sprague-Dawley rat at 25 mg/kg by LC/MS method; type: ADME, organism-based; conditions: in vivo
# [7] = Tmax in Sprague-Dawley rat at 25 mg/kg, po by LC/MS method; type: ADME, organism-based; conditions: in vivo
# [8] = system: MDA-MB-231; assay: Antiproliferative activity against human MDA-MB-231 cells after 24 to 72 hrs by MTT assay; type: functional, cell-based
# [9] = target: T1, Tyrosine-protein kinase receptor UFO; assay: Binding affinity to human AXL by active site dependent completion binding assay
# [10] = system: MDA-MB-231; assay: Effect on total AKT protein level in human MDA-MB-231 cells at 0.03 to 3 uM after 6 hrs by Western blot method; type: ADME, cell-based; conditions: mda-mb-231, 6 h
# [11] = system: MDA-MB-231; assay: Inhibition of TGFbeta1-induced cell migration in human MDA-MB-231 cells at 0.2 uM incubated for 24 hrs by wound healing assay; type: functional; conditions: MDA-MB-231, 24 h
# [12] = target: Serine/threonine-protein kinase 10 (Homo sapiens, UniProt O94804); assay: Binding affinity to human LOK
# Serine/threonine-protein kinase 10, sequence (O94804 whole entry): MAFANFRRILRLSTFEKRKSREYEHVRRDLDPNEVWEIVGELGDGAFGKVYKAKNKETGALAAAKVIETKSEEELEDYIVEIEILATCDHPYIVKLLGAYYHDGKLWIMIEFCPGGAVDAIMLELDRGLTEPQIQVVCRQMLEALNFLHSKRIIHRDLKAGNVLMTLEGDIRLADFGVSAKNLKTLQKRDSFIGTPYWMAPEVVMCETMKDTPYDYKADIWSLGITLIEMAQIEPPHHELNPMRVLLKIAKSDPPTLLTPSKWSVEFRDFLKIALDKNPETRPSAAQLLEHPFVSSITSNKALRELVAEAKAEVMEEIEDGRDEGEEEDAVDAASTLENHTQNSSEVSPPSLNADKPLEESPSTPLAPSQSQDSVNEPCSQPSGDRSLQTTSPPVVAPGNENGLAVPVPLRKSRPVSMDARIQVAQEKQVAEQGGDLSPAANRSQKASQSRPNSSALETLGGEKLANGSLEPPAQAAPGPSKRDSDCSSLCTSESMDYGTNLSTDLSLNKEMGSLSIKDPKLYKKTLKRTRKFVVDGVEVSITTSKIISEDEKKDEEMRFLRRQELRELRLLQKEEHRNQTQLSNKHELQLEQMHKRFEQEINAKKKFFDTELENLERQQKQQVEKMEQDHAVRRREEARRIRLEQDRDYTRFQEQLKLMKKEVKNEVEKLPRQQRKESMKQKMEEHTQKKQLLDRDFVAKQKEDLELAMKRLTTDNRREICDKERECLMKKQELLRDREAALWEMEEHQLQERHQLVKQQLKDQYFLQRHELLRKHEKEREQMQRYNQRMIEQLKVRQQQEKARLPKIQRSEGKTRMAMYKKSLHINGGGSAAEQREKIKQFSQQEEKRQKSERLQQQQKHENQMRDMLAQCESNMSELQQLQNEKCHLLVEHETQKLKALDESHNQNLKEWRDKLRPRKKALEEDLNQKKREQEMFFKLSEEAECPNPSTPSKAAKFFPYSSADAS
# [13] = target: Mast/stem cell growth factor receptor Kit (Homo sapiens, UniProt P10721); assay: Binding affinity to human KIT
# [14] = target: Hepatocyte growth factor receptor (Homo sapiens, UniProt P08581); assay: Binding affinity to human MET
# [15] = Cmax in Sprague-Dawley rat at 2.5 mg/kg, iv by LC/MS method; type: ADME, organism-based; design: dose 2.5 mg/kg, route intravenous; conditions: in vivo
# [16] = target: Homeodomain-interacting protein kinase 4 (Homo sapiens, UniProt Q8NE63); assay: Binding affinity to human HIPk4
# Homeodomain-interacting protein kinase 4, sequence (Q8NE63 whole entry): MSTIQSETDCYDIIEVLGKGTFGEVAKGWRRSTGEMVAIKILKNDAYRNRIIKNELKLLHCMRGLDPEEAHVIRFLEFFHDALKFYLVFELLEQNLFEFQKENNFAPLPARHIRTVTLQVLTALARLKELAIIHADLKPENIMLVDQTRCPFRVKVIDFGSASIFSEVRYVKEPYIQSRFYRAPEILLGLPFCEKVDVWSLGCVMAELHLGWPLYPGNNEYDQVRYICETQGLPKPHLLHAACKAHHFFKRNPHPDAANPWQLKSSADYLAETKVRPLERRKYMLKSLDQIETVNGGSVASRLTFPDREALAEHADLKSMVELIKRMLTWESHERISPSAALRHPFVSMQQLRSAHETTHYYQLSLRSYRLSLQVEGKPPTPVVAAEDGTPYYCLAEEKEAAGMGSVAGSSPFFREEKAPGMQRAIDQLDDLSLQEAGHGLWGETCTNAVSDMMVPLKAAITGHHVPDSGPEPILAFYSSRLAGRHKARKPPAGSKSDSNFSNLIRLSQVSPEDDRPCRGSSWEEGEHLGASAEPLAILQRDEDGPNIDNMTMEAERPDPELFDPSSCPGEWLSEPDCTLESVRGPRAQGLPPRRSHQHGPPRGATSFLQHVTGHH
# [17] = target: T2, Receptor-type tyrosine-protein kinase FLT3 (Homo sapiens, UniProt P36888); assay: Binding affinity to human FLT3
# T2 sequence (P36888 whole entry): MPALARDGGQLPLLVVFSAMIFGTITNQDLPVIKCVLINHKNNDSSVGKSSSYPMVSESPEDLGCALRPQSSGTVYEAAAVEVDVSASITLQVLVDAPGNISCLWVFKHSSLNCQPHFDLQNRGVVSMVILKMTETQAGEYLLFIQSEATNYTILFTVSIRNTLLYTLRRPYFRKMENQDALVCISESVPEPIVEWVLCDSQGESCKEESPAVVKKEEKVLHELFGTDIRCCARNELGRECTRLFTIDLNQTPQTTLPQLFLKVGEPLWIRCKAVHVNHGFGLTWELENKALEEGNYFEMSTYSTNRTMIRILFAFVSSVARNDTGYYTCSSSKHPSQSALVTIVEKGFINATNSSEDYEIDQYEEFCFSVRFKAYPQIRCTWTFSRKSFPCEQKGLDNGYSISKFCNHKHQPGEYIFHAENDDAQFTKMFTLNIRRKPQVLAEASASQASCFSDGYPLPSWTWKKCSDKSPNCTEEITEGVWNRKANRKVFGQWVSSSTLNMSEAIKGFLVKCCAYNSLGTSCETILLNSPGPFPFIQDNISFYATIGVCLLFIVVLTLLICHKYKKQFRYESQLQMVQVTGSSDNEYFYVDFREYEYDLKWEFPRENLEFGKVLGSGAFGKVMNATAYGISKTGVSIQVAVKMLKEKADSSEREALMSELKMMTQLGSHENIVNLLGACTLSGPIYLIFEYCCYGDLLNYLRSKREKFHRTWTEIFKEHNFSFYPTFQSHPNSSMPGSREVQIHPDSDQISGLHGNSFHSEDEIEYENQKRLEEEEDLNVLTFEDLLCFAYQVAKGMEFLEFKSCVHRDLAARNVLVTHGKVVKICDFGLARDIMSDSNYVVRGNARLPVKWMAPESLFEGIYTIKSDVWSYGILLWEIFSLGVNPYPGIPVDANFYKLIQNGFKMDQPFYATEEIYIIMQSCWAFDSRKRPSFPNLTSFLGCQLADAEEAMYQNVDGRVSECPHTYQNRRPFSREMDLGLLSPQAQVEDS
# [18] = AUC (0 to infinity) in Sprague-Dawley rat at 2.5 mg/kg, iv by LC/MS method; type: ADME, organism-based; design: dose 2.5 mg/kg, route intravenous, time infinity; conditions: in vivo
# [19] = Clearance in Sprague-Dawley rat at 2.5 mg/kg, iv by LC/MS method; type: ADME, organism-based; conditions: in vivo
# [20] = target: Epithelial discoidin domain-containing receptor 1 (Homo sapiens, UniProt Q08345); assay: Inhibition of DDR1 (unknown origin)
# [21] = target: Tyrosine-protein kinase receptor TYRO3 (Homo sapiens, UniProt Q06418); assay: Binding affinity to human Tyro3
# Tyrosine-protein kinase receptor TYRO3, sequence (Q06418 whole entry): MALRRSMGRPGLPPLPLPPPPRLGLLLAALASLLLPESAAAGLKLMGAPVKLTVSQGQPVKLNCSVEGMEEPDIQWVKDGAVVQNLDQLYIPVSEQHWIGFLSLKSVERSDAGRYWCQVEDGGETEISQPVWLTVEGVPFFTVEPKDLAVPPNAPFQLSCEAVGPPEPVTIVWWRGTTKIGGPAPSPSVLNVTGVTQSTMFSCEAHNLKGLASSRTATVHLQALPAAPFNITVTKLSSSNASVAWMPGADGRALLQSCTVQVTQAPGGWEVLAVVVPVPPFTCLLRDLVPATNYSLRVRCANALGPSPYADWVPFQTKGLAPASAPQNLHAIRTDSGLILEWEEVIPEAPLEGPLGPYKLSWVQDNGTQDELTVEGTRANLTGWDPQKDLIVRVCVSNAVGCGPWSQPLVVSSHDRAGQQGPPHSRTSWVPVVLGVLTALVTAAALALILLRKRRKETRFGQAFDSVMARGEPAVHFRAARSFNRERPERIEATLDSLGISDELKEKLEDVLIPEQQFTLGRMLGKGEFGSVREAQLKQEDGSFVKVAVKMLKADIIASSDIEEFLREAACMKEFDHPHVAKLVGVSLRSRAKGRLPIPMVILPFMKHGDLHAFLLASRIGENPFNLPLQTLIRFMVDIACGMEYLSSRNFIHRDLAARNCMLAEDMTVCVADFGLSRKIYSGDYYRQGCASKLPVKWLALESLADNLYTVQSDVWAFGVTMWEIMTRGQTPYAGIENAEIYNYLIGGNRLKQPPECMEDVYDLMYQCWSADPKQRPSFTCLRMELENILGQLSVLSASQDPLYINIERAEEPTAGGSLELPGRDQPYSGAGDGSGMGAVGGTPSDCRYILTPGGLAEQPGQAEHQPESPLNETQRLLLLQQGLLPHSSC
# [22] = target: Aurora kinase B (Homo sapiens, UniProt Q96GD4); assay: Inhibition of aurora B (unknown origin)
# Aurora kinase B, sequence (Q96GD4 whole entry): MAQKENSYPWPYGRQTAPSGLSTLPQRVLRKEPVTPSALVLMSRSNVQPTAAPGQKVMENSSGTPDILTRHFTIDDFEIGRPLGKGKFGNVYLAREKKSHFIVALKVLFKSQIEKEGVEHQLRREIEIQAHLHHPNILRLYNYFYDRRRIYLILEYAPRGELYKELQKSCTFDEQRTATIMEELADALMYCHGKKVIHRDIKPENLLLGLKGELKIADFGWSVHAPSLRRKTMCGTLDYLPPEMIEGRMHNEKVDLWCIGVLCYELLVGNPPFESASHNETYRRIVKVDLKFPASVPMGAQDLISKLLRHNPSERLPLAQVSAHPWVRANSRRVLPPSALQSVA
# [23] = target: ALK tyrosine kinase receptor (Homo sapiens, UniProt Q9UM73); assay: Binding affinity to human ALK
# [24] = target: Dual specificity mitogen-activated protein kinase kinase 5 (Homo sapiens, UniProt Q13163); assay: Binding affinity to human MEK5
# [25] = system: MDA-MB-231; assay: Inhibition of TGFbeta1-induced cell invasion in human MDA-MB-231 cells at 5 uM incubated for 24 hrs by matrigel-mediated Boyden chamber assay; type: functional; conditions: MDA-MB-231, 24 h
# [26] = Ratio of Cmax in Sprague-Dawley rat at 25 mg/kg, po to IC50 for inhibition of human recombinant AXL; type: organism-based; conditions: in vivo
# [27] = system: MDA-MB-231; assay: Toxicity in human MDA-MB-231 cells at 0.04 to 5 uM incubated for 24 hrs; type: cell-based; conditions: mda-mb-231, 24 h
# [28] = target: Tyrosine-protein kinase Mer (Homo sapiens, UniProt Q12866); assay: Binding affinity to human MER
# [29] = target: Cyclin-dependent kinase 11B (Homo sapiens, UniProt P21127); assay: Binding affinity to human CDK11
# Cyclin-dependent kinase 11B, sequence (P21127 whole entry): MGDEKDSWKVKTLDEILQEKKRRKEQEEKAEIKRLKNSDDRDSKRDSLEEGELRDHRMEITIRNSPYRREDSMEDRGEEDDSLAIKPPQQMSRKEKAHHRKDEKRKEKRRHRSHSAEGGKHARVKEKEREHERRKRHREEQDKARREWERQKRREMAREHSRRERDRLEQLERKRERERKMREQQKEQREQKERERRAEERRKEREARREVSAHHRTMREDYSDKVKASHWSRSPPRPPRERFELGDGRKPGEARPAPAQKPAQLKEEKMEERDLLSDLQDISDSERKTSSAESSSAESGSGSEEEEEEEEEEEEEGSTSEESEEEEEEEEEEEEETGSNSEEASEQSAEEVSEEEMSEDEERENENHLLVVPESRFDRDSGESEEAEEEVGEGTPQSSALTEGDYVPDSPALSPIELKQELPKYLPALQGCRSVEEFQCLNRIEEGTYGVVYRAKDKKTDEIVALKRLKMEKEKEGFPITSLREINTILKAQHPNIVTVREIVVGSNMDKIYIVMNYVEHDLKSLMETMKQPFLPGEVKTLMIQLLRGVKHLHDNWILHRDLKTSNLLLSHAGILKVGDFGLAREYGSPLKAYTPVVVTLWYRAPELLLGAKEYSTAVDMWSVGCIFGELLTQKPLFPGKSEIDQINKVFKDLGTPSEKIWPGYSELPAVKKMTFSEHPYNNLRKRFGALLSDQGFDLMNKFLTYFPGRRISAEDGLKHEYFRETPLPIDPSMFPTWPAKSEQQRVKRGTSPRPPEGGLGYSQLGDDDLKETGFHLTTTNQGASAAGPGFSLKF
# [30] = target: Aurora kinase A (Homo sapiens, UniProt O14965); assay: Inhibition of aurora A (unknown origin)
# Aurora kinase A, sequence (O14965 whole entry): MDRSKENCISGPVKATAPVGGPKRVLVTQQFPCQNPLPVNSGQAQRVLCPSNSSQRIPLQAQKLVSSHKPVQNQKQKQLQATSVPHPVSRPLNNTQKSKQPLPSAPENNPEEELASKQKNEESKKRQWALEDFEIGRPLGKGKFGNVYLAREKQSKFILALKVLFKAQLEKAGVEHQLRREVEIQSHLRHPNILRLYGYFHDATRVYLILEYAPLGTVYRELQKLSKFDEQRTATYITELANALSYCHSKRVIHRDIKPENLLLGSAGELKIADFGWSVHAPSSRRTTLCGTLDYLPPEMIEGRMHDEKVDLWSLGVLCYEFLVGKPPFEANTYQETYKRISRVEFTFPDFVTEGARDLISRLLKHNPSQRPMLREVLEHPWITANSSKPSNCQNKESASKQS
# [31] = system: MDA-MB-231; assay: Inhibition of TGFbeta1-induced cell invasion in human MDA-MB-231 cells at 1 uM incubated for 24 hrs by matrigel-mediated Boyden chamber assay; type: functional; conditions: MDA-MB-231, 24 h
# [32] = Half life in Sprague-Dawley rat at 2.5 mg/kg, iv by LC/MS method; type: ADME, organism-based; conditions: in vivo
# [33] = target: Discoidin domain-containing receptor 2 (Homo sapiens, UniProt Q16832); assay: Inhibition of DDR2 (unknown origin)
# [34] = target: T1, Tyrosine-protein kinase receptor UFO; assay: Binding affinity to human AXL
# [35] = target: BDNF/NT-3 growth factors receptor (Homo sapiens, UniProt Q16620); assay: Binding affinity to human TRKB
# [36] = target: T2, Receptor-type tyrosine-protein kinase FLT3; assay: Inhibition of FLT3 (unknown origin)
# [37] = system: MDA-MB-231; assay: Inhibition of TGFbeta1-induced cell migration in human MDA-MB-231 cells at 5 uM incubated for 24 hrs by wound healing assay; type: functional; conditions: MDA-MB-231, 24 h
# [38] = target: Cyclin-dependent kinase 8 (Homo sapiens, UniProt P49336); assay: Binding affinity to human CDK8
# [39] = target: High affinity nerve growth factor receptor (Homo sapiens, UniProt P04629); assay: Binding affinity to human TRKA
# [40] = target: Tyrosine-protein kinase Blk (Homo sapiens, UniProt P51451); assay: Binding affinity to human BLK
# [41] = system: MDA-MB-231; assay: Inhibition of TGFbeta1-induced cell invasion in human MDA-MB-231 cells at 0.04 uM incubated for 24 hrs by matrigel-mediated Boyden chamber assay; type: functional; conditions: MDA-MB-231, 24 h
# [42] = target: STE20-like serine/threonine-protein kinase (Homo sapiens, UniProt Q9H2G2); assay: Binding affinity to human SLK
# [43] = system: MDA-MB-231; assay: Inhibition of TGFbeta1-induced cell invasion in human MDA-MB-231 cells at 0.2 uM incubated for 24 hrs by matrigel-mediated Boyden chamber assay; type: functional; conditions: MDA-MB-231, 24 h
# [44] = system: MDA-MB-231; assay: Inhibition of TGFbeta1-induced cell migration in human MDA-MB-231 cells at 1 uM incubated for 24 hrs by wound healing assay; type: functional; conditions: MDA-MB-231, 24 h
structure (smiles),measurement,setting,value
CCc1ccc2c(c1)c(=O)c(C(=O)Nc1ccc(Oc3ccnc4[nH]cc(-c5ccccc5)c34)c(F)c1)c(C)n2C,IC50,[1],30 nM
CCc1ccc2c(c1)c(=O)c(C(=O)Nc1ccc(Oc3ccnc(Cl)c3)c(F)c1)c(C)n2C,IC50,[1],> 10000 nM
CCc1ccc2c(c1)c(=O)c(C(=O)Nc1ccc(Oc3ccnc4occ(-c5ccccc5)c34)c(F)c1)c(C)n2C,IC50,[1],192 nM
Cc1ccc2c(c1)c(=O)c(C(=O)Nc1ccc(Oc3ncnc4[nH]cc(-c5ccccc5)c34)c(F)c1)c(C)n2C,IC50,[1],100 nM
Cc1c(C(=O)Nc2ccc(Oc3ncnc4[nH]cc(-c5ccccc5)c34)c(F)c2)c(=O)c2cc(C3CC3)ccc2n1C,IC50,[1],230 nM
Cc1c(C(=O)Nc2ccc(Oc3ncnc4[nH]cc(-c5ccccc5)c34)c(F)c2)c(=O)c2cc(C(F)(F)F)ccc2n1C,IC50,[1],150 nM
CCc1ccc2c(c1)c(=O)c(C(=O)Nc1ccc(Oc3ccnc(C(N)=O)c3Cl)c(F)c1)c(C)n2C,IC50,[1],> 10000 nM
COC(=O)c1ccc2c(c1)c(=O)c(C(=O)Nc1ccc(Oc3ncnc4[nH]cc(-c5ccccc5)c34)c(F)c1)c(C)n2C,IC50,[1],> 10000 nM
CCc1ccc2c(c1)c(=O)c(C(=O)Nc1ccc(Oc3ncnc4[nH]cc(-c5ccccc5)c34)c(F)c1)c(C)n2C,Activity,[2],Non-Toxic
same,IC50,[3],> 10000 nM
same,IC50,[4],> 10000 nM
same,IC50,[5],> 10000 nM
same,bioavailability,[6],1.2%
same,Tmax,[7],0.67 h
same,IC50,[8],> 10000 nM
same,Kd,[9],1.2 nM
same,Activity,[10],Non-Toxic
C=C(C)c1ccc2c(c1)c(=O)c(C(=O)Nc1ccc(Oc3ncnc4[nH]cc(-c5ccccc5)c34)c(F)c1)c(C)n2C,IC50,[1],170 nM
CCn1c(C)c(C(=O)Nc2ccc(Oc3ncnc4[nH]cc(-c5ccccc5)c34)c(F)c2)c(=O)c2cc(C)ccc21,IC50,[1],150 nM
Cc1c(C(=O)Nc2ccc(Oc3ncnc4[nH]cc(-c5ccccc5)c34)c(F)c2)c(=O)c2cc(C3=CCCC3)ccc2n1C,IC50,[1],3320 nM
Cc1c(C(=O)Nc2ccc(Oc3ncnc4[nH]cc(-c5ccccc5)c34)c(F)c2)c(=O)c2cc(OC(F)(F)F)ccc2n1C,IC50,[1],74 nM
CCc1ccc2c(c1)c(=O)c(C(=O)Nc1ccc(Oc3ncnc4[nH]cc(-c5ccccc5)c34)cc1F)c(C)n2C,IC50,[1],30 nM
Cc1ccc2c(c1)c(=O)c(C(=O)Nc1ccc(Oc3ncnc4[nH]cc(-c5ccccc5)c34)c(F)c1)cn2C,IC50,[1],150 nM
Cc1c(C(=O)Nc2ccc(Oc3ncnc4[nH]cc(-c5ccccc5)c34)c(F)c2)c(=O)c2cc(C3CCCC3)ccc2n1C,IC50,[1],200 nM
CCc1ccc2c(c1)c(=O)c(C(=O)Nc1ccc(Oc3ncnc4cc(OC)c(OC)cc34)c(F)c1)c(C)n2C,inhibition at 0.2 µM,[11],24.2%
same,Kd,[12],10 nM
same,Kd,[13],1670 nM
same,Activity,[2],Non-Toxic
same,Kd,[14],79 nM
same,IC50,[3],> 10000 nM
same,IC50,[4],> 10000 nM
same,Cmax,[15],1170 ng/mL
same,IC50,[5],> 10000 nM
same,Kd,[16],11 nM
same,Kd,[17],4 nM
same,AUC(0-inf),[18],42300 ng·h/mL
same,clearance,[19],1.67 mL/min/kg
same,IC50,[20],22.2 nM
same,Kd,[21],58 nM
same,IC50,[22],114 nM
same,Kd,[23],> 1000 nM
same,Kd,[24],38 nM
same,inhibition at 5 µM,[25],78.1%
same,Tmax,[7],6 h
same,Ratio,[26],> 900
same,Activity,[27],Non-Toxic
same,Kd,[28],1.4 nM
same,Kd,[29],470 nM
same,IC50,[30],192 nM
same,inhibition at 1 µM,[31],73.5%
same,IC50,[8],> 10000 nM
same,Kd,[9],2.7 nM
same,half-life,[32],25.2 h
same,IC50,[33],350 nM
same,Kd,[34],2.7 nM
same,Kd,[35],54 nM
same,IC50,[36],< 10 nM
same,inhibition at 5 µM,[37],58.4%
same,Kd,[38],> 1000 nM
same,Kd,[39],50 nM
same,Kd,[40],200 nM
same,inhibition at 0.04 µM,[41],48.5%
same,Kd,[42],240 nM
same,inhibition at 0.2 µM,[43],52.1%
same,inhibition at 1 µM,[44],50.6%
same,Activity,[10],Non-Toxic
